“And” between values parts separate entries of the source, which are not always exact repeats. Equal values may be shown once.
Key:
[1] = dose-dependent, apparently nonspecific; cited from earlier work
[2] = Equilibrium-dialysis of ^14C-Mega 10 from ISCOM-matrix; details: water not replaced
Description: ISCOMs were prepared by combining Quil A, cholesterol and phophatidylcholine with the component to be inserted (e.g. lipopeptide). ISCOMs were allowed to form for 4 hours with stirring at 35° C. (room temperature for experiments with ^12C/^14C-Mega 10) followed by dialysis against phosphate buffered saline (pH 7.2) in Slide-A-Lyzer® cassettes (Pierce, Rockford, Ill.) or dialysis tubing (Visking, London, UK), MW cut-off 10,000. The concentration in the reaction mixture of Quil A ranged 0.9 mg/ml to 1.3 mg/ml for the different preparations (see Section 3), whereas the concentration of cholesterol and phophatidylcholine was 0.03% w/v in all experiments. The final concentration of Mega 10 was 4% w/v unless otherwise stated.
In the first experiment the kinetics of the Mega 10-dialysis was investigated. ISCOM-matrix was formed in the presence of 7% w/v ^12C/^14C-Mega 10 and Quil A at a concentration of 0.9 mg/ml. From a total volume of 18.3 ml sixteen aliquots of 1 ml were taken and set up for dialysis against water in 8 beakers of 1000 ml (2×1 ml bags per 1000 ml water). Four beakers were placed at room temperature and four at 4° C. with stirring. On each of the following days one beaker from both temperatures were taken and the contents of the individual dialysis bags (2×2 bags) counted after addition of water in order to compensate for differences in volume. Table 1 lists the amount of ^14C-Mega 10 remaining in each bag after dialysis for a certain period of time given as the percentage of cpm (counts per minute) relative to the initial ^14C-contents. […] However, the same end-point concentration of ^14C-Mega 10 was reached within four days (0.4-1%) despite of temperature. Anticipating that Mega 10 diffuses freely across the dialysis membrane one would expect the contents of dialysis bags to represent 0.51% of the total ^14C-Mega 10, as the volume of two bags (from one beaker) at equilibrium was 5.1 ml leaving approx. 995 ml in the beaker (5.1 ml/995 ml*100%=0.51%). And it is concluded that although dialysis at room temperature is faster than dialysis at 4° C. both methods are equally efficient in removing Mega 10 from ISCOM-matrix.

[3] = End-point-dialysis of ^14C-Mega 10 from ISCOM-matrix; details: for Amount of detergent remaining in bags: Room temperature, daily replacement of water
Description: In order to further investigate if Mega 10 could be completely removed from ISCOM-matrix a second experiment was designed. Here, four dialysis bags containing 1 ml of ISCOM-matrix prepared with 3.3% w/v ^12C/^14C-Mega 10 was placed in individual beakers containing 1000 ml of water. Dialysis was performed at room temperature with stirring. Each day one beaker was taken and the contents of the dialysis bag counted after which the dialysis buffer (water) of the remaining beakers was replaced.

Row | Compound | immunomodulating activity [1] | Amount of detergent remaining in dialysis bags ([2]; 4° C., 1 day) | Amount of detergent remaining in dialysis bags ([2]; 4° C., 2 days) | Amount of detergent remaining in dialysis bags ([2]; 4° C., 3 days) | Amount of detergent remaining in dialysis bags ([2]; 4° C., 4 days) | Amount of detergent remaining in dialysis bags ([2]; Room temperature, 1 day) | Amount of detergent remaining in dialysis bags ([2]; Room temperature, 2 days) | Amount of detergent remaining in dialysis bags ([2]; Room temperature, 3 days) | Amount of detergent remaining in dialysis bags ([2]; Room temperature, 4 days) | Amount of detergent remaining in bags ([3]; 1 day) | Amount of detergent remaining in bags ([3]; 2 days) | Amount of detergent remaining in bags ([3]; 3 days) | Amount of detergent remaining in bags ([3]; 4 days) | original amount of detergent remaining within the dialysis bag ([3]; at equilibrium, with replacement of water)
1 | CC(=O)O[C@@H]1[C@H](O[C@@H]2O[C@@H](CO)[C@H](O)[C@H]2O)[C@@H](O[C@@H]2O[C@@H](C)[C@H](O[C@@H]3OC[C@@H](O)[C@H](O)[C@H]3O)[C@@H](O)[C@H]2O)[C@H](OC(=O)[C@]23CCC(C)(C)C[C@H]2C2=CC[C@@H]4[C@@]5(C)CC[C@H](O[C@@H]6O[C@H](C(=O)O)[C@@H](O)[C@H](O[C@@H]7OC[C@@H](O)[C@H](O)[C@H]7O)[C@H]6O[C@@H]6O[C@H](CO)[C@H](O)[C@H](O)[C@H]6O)[C@@](C)(C=O)[C@H]5CC[C@@]4(C)[C@]2(C)CC3)O[C@@H]1C [Squarroside A] | a suppressive effect at concentrations in the μg range and a stimulant effect in the pg range | – | – | – | – | – | – | – | – | – | – | – | – | –
2 | CCCCCCCCCC(=O)N(C)CC(O)C(O)C(O)C(O)CO (centres unmarked) [^14C-Mega 10, N-Decanoyl-N-methylglucamide] | – | 14.5 percentage of initial cpm and 13.5 percentage of initial cpm | 2.2 percentage of initial cpm and 2.3 percentage of initial cpm | 1.0 percentage of initial cpm and 1.3 percentage of initial cpm | 0.7 percentage of initial cpm and 1.1 percentage of initial cpm | 2.1 percentage of initial cpm | 0.9 percentage of initial cpm | 0.9 percentage of initial cpm | 0.7 percentage of initial cpm and 0.4 percentage of initial cpm | 0.23% | 0.07% | 0.06% | 0.07% | 0.07%

— US7713942B2, “Cage-like microparticle complexes comprising sterols and saponins for delivery of polynucleotides” (Nordic Vaccine Technology A/S, priority 2001, dated 2010)
